# US8906829B2, “Synergistic algicidal compositions including hydrazone derivatives and copper” (Dow AgroSciences LLC, priority 2010, dated 2014)
# How the values were obtained:
# C. reinhardtii CC-1928 = assay: Effect of copper on activity of hydrazones: in vitro growth inhibition of C. reinhardtii in TAP Cu minus / TAP Cu plus medium (Example 10); assay type: cell-based, Chlamydomonas reinhardtii; conditions: for inhibition of growth at 1 µg/mL: Chlamydomonas reinhardtii, TAP Cu minus medium, read-out: % Inhn. Minus Copper Observed; for inhibition of growth at 1 µg/mL / % Inhn. Plus Copper Observed: test compound 1 μg/mL, 48 h; for % Inhn. Plus Copper Observed: TAP Cu plus medium (CuCl2); for % Inhn. by copper chloride alone: CuCl2, 10 μM, TAP Cu plus vs TAP Cu minus without test compound, across experiments
# How it was run: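 Washed cells (suspension 2×10^5 spores per mL) added to compound at 1 μg/mL in Chelex-treated TAP Cu minus or TAP Cu plus (20 μM CuCl2). After 48 h at 27 °C, growth read by light scattering; % inhibition vs compound-free wells, plus-Cu predicted values by Colby formula from minus-Cu data.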
# [1] = system: Synechocystis sp. strain 6803; assay: Effect of copper on activity of hydrazones: in vitro growth inhibition of Synechocystis in BG-11 Cu minus / Cu plus medium (Example 11); assay type: cell-based; conditions: for inhibition of growth at 0.05 µg/mL / inhibition of growth at 0.0125 µg/mL / inhibition of growth at 0.00625 µg/mL: Synechocystis, BG-11 Cu minus medium, read-out: % Inhn. Minus Copper Observed; for inhibition of growth at 0.05 µg/mL / % Inhn. Plus Copper Observed / inhibition of growth at 0.0125 µg/mL / inhibition of growth at 0.00625 µg/mL: 72 h; for % Inhn. Plus Copper Observed: BG-11 Cu plus medium
# How it was run: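 Synechocystis sp. 6803 in Chelex-treated, copper-free BG-11 (pH 7.1) or the same medium plus 0.2 μM CuCl2, inoculated from a 4×10^5/mL suspension. Growth after 72 h at 27 °C was measured by light scattering and expressed as % inhibition versus compound-free wells. Copper-plus results were compared with Colby-predicted values.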
SMILES,inhibition of growth at 1 µg/mL (C. reinhardtii CC-1928) [%],% Inhn. Plus Copper Observed (C. reinhardtii CC-1928) [%],inhibition of growth at 0.05 µg/mL ([1]; Test Concn. 0.05 μg/mL) [%],% Inhn. Plus Copper Observed ([1]; Test Concn. 0.05 μg/mL) [%],inhibition of growth at 0.0125 µg/mL ([1]; Test Concn. 0.0125 μg/mL) [%],% Inhn. Plus Copper Observed ([1]; Test Concn. 0.0125 μg/mL) [%],inhibition of growth at 0.00625 µg/mL ([1]; Test Concn. 0.00625 μg/mL) [%],% Inhn. Plus Copper Observed ([1]; Test Concn. 0.00625 μg/mL) [%],% Inhn. by copper chloride alone (C. reinhardtii CC-1928) [%],% Inhn. by copper chloride alone (C. reinhardtii CC-1928; listed as Copper chloride),"% Inhn. by copper chloride alone ([1]; CuCl2, 10 μM (so in the source), copper-plus vs copper-minus medium without test compound, across experiments) [%]"
O=C(N/N=C/c1cc(Cl)cc(Cl)c1O)c1ccccc1 [Compound 1],16,96,29,91,,,,,,,
C/C(=N\NC(=O)c1ccccc1)c1cc(Cl)cc(Cl)c1O [Compound 6],13,98,19,99,,,,,,,
O=C(N/N=C/c1cc(Cl)cc(Cl)c1O)c1ccccc1O [Compound 7],29,94,22,96,,,,,,,
C/C(=N\NC(=O)c1ccc(Cl)cc1)c1cc(Cl)cc(Cl)c1O [Compound 12],4,96,,,21,82,,,,,
O=C(N/N=C/c1cc(Cl)cc(Br)c1O)c1ccccc1 [Compound 14],6,97,50,97,,,,,,,
O=C(N/N=C/c1cc(Cl)cc(Br)c1O)c1ccc(Cl)cc1 [Compound 15],11,97,,,,,15,74,,,
O=C(N/N=C/c1cc(Cl)cc(Br)c1O)c1ccccc1O [Compound 18],13,95,,,47,86,,,,,
O=C(N/N=C/c1ccc(Cl)c(Cl)c1O)c1ccccc1 [Compound 21],6,94,,,39,96,,,,,
"C/C(=N\NC(=O)c1cccc(C)c1)c1cc(Cl)cc(Cl)c1O [Compound 25, 3-methyl-benzoic acid [1-(3,5-dichloro-2-hydroxyphenyl)-ethylidene]-hydrazide]",33,95,18,92,,,,,,,
C/C(=N\NC(=O)c1ccc(C)cc1)c1cc(Cl)cc(Cl)c1O [Compound 26],5,94,54,95,,,,,,,
O=C(N/N=C/c1cc(Cl)cc(C(F)(F)F)c1O)c1ccccc1 [Compound 27],30,96,31,95,,,,,,,
O=C(N/N=C/c1cc(C(F)(F)F)cc(C(F)(F)F)c1O)c1ccc(Cl)cc1 [Compound 32],21,97,26,91,,,,,,,
O=C(N/N=C/c1c(Cl)ccc(Cl)c1O)c1ccc(Cl)cc1 [Compound 45],9,96,,,,,33,78,,,
O=C(N/N=C/c1cccc(Cl)c1O)c1ccc(Cl)cc1 [Compound 52],-4,88,,,8,90,,,,,
O=C(N/N=C/c1c(C(F)(F)F)ccc(Cl)c1O)c1ccc(Cl)cc1 [Compound 56],11,97,,,28,75,,,,,
Cc1ccccc1C(=O)N/N=C/c1cc(Cl)cc(Cl)c1O [Compound 63],-18,93,37,94,,,,,,,
"[Cl][Cu][Cl] [CuCl2, Copper chloride, reference compound]",,,,,,,,,−11.7 ± 6.0,slight enhancement of growth,7.0 ± 4.6
